This is an account of results in patent US20200325505A1, “FILAMENTOUS FUNGI CAPABLE OF PRODUCING VERY LONG CHAIN FATTY ACIDS” (UT-Battelle, LLC, priority 2019, published 2020).

Data set [1] concerns Mortierella elongata AG77. Put plainly: Nitrogen source utilisation in Biolog 96-well plates, formazan formation after tetrazolium addition. As to conditions: for Metabolized: Metabolized = more formazan formation than a control containing no nitrogen source, observed visually at 2 h, 24 h, 148 h; for Nitrogen sources that Mortierella elongata AG77 can metabolize: text summary of Table 4. It is filed as cell-based. The protocol:
Two 300 mL volumes of growth medium comprising 1 g/L KH2PO4, 1 g/L MgSO4 7H2O, 0.1 g/L CaCl2, 0.02 g/L FeNaEDTA, 0.1 g/L NaCl, and either 1 g/L NH4NO3 or 20 g/L sucrose were prepared. […] Aliquots of 200 μL of carbon-free medium or nitrogen-free medium were pipetted into each well of a set of 96-well plates previously prepared with lyophilized putative carbon or nitrogen sources (Biolog Inc., Hayward, Calif.). Inocula were prepared by perforating a culture of Mortierella elongata AG77 grown on 20 g/L potato dextrose agar with a 3 mm diameter cork borer and separating the surface mycelial mat from the solid growth medium using tweezers. Each well was inoculated with one inoculum. Cultures were incubated at 21° C. for 24 hours to allow metabolic changes to stabilize, and then 100 μL of 3 g/L tetrazolium chloride in water was added to each well.
Conclusions were based on rate and intensity of formazan formation using the 3-(4,5-dimethylthiazol-2-yl)-2,5-diphenyltetrazolium bromide ([…]) assay. “Metabolized” indicates more formazan formation than a control containing no nitrogen source, and “Toxic” indicates less formazan formation than a control containing no nitrogen source, “Metabolized” and “Toxic” assignments are mutually exclusive. In this example, a compound may be “Metabolized” or “Toxic,” but not both.

The test system of data set [2] is Mortierella elongata AG77. Description: Carbon source utilisation in Biolog 96-well plates, formazan formation after tetrazolium addition. It is filed as cell-based. As to conditions: for Metabolized: Metabolized = more formazan formation than a control containing no carbon source, observed visually at 2 h, 24 h, 148 h; for Carbon sources that Mortierella elongata AG77 can metabolize: summary of Table 3. An outline of the steps:
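Scoring was by eye at 2, 24 and 148 h after tetrazolium chloride went into wells preincubated 24 h at 21 °C. Wells held lyophilised candidate carbon or nitrogen sources in pH 5.5 mineral medium lacking that nutrient, inoculated with 3 mm PDA-grown mycelial plugs. Formazan above the no-carbon control counted as metabolised and below it as toxic.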

[3] abbreviates: compound as nitrogen source, Toxic = less formazan formation than a control containing no nitrogen source.
The mark [4] stands for this setting: compound as carbon source, Toxic = less formazan formation than a control containing no carbon source.

Residues, ends and D or L forms follow the SMILES beside them.

Take `C[C@@H](N)C(=O)O` [D-Alanine]: in data set [1], the Toxic entry is on record as “no” and the “Nitrogen sources that Mortierella elongata AG77 can metabolize” value is “can metabolize”. For the same molecule, the Metabolized entry in data set [1] (compound as nitrogen source) is “yes”. Further, in data set [2], the Toxic result is on record as “no” and the “Carbon sources that Mortierella elongata AG77 can metabolize” value was “can metabolize”. The Metabolized result in data set [2] (compound as carbon source) was “yes”.

With `N[C@H](CC(=O)O)C(=O)O` [D-Aspartic Acid], the Toxic result in data set [1] and in data set [2] was “no” in each case. Further, the Metabolized entry is recorded as “no” in data set [1] (compound as nitrogen source) and “yes” in data set [2] (compound as carbon source). In addition, in data set [2], the “Carbon sources that Mortierella elongata AG77 can metabolize” value is recorded as “can metabolize”.

Take `N[C@H]1C(O)O[C@H](CO)[C@@H](O)[C@@H]1O` (stereo partly drawn) [D-Glucosamine]: the Toxic result in data set [1] and in data set [2] was “no” each time. Further, the Metabolized result is given as “no” in data set [1] (compound as nitrogen source) and “yes” in data set [2] (compound as carbon source). For the same molecule, in data set [2], the “Carbon sources that Mortierella elongata AG77 can metabolize” value is listed as “can metabolize”.

Turning to `N[C@H](CO)C(=O)O` [D-Serine], the Toxic entry in data set [1] and in data set [2] was “no” in each case. The Metabolized entry in data set [1] (compound as nitrogen source) and in data set [2] (compound as carbon source) was “no” throughout.

`NC(=O)[C@@H](O)[C@@H](O)[C@H](O)[C@@H](O)C=O` [Glucuronamide]: the Metabolized result is on record as “no” in data set [1] (compound as nitrogen source) and “yes” in data set [2] (compound as carbon source). For the same molecule, the Toxic entry in data set [1] (setting [3]) and in data set [2] (setting [4]) was “no” throughout. Moreover, the “Carbon sources that Mortierella elongata AG77 can metabolize” value in data set [2] is “can metabolize”.

Turning to `NCC(=O)O` [Glycine], the Toxic entry in data set [1] and in data set [2] was “no” each time. The Metabolized result in data set [1] (compound as nitrogen source) is given as “yes”; in data set [2] (compound as carbon source), “no”. In addition, the “Nitrogen sources that Mortierella elongata AG77 can metabolize” value in data set [1] is “can metabolize”.

Regarding `NCC(=O)N[C@@H](CCC(=O)O)C(=O)O` [Glycyl-L-Glutamic Acid] (H-Gly-Glu-OH), the Metabolized result in data set [1] (compound as nitrogen source) and in data set [2] (compound as carbon source) was “no” each time. Moreover, the Toxic result in data set [1] (setting [3]) and in data set [2] (setting [4]) was “no” each time.

Turning to `OC[C@H]1O[C@@H](n2cnc3c(O)ncnc32)[C@H](O)[C@@H]1O` [Inosine], the Metabolized entry in data set [1] (compound as nitrogen source) is reported as “no”; in data set [2] (compound as carbon source), “yes”. The Toxic entry in data set [1] (setting [3]) and in data set [2] (setting [4]) was “no” in each case. Moreover, the “Carbon sources that Mortierella elongata AG77 can metabolize” value in data set [2] is “can metabolize”.

As for `C[C@H](N)C(=O)O` [L-Alanine], the Toxic entry in data set [1] and in data set [2] was “no” each time. The Metabolized result is recorded as “yes” in data set [1] (compound as nitrogen source) and “no” in data set [2] (compound as carbon source). The “Nitrogen sources that Mortierella elongata AG77 can metabolize” value in data set [1] is “can metabolize”.

Turning to `C[C@H](N)C(=O)NCC(=O)O` [L-Alanyl-Glycine] (H-Ala-Gly-OH), the Toxic entry in data set [1] and in data set [2] was “no” each time. Besides, the Metabolized entry in data set [1] (compound as nitrogen source) and in data set [2] (compound as carbon source) was “no” throughout.

Regarding `N=C(N)NCCC[C@H](N)C(=O)O` [L-Arginine], the Toxic result in data set [1] and in data set [2] was “no” in each case. The Metabolized result in data set [1] (compound as nitrogen source) is on record as “no”; in data set [2] (compound as carbon source), “yes”. In data set [2], the “Carbon sources that Mortierella elongata AG77 can metabolize” value is on record as “can metabolize”.

For `NC(=O)C[C@H](N)C(=O)O` [L-Asparagine], the results for the Toxic entry in data set [1] and in data set [2] were “no” and “yes”, respectively. Besides, the Metabolized result in data set [1] (compound as nitrogen source) and in data set [2] (compound as carbon source) was “no” throughout.

On to `N[C@@H](CC(=O)O)C(=O)O` [L-Aspartic Acid], for which the Toxic result in data set [1] and in data set [2] was “no” in each case. The results for the Metabolized entry in data set [1] (compound as nitrogen source) and in data set [2] (compound as carbon source) were “no” and “yes”, respectively. For the same molecule, the “Carbon sources that Mortierella elongata AG77 can metabolize” value in data set [2] is recorded as “can metabolize”.

For `N[C@@H](CCC(=O)O)C(=O)O` [L-Glutamic Acid], the Metabolized entry in data set [1] (compound as nitrogen source) is “yes”; in data set [2] (compound as carbon source), “no”. For the same molecule, the Toxic entry in data set [1] (setting [3]) and in data set [2] (setting [4]) was “no” throughout. Also, in data set [1], the “Nitrogen sources that Mortierella elongata AG77 can metabolize” value is “can metabolize”.

`NC(=O)CC[C@H](N)C(=O)O` [L-Glutamine]: the Toxic entry was “no” in data set [1] and “yes” in data set [2]. Also, the Metabolized result was “yes” in data set [1] (compound as nitrogen source) and “no” in data set [2] (compound as carbon source). In addition, the “Nitrogen sources that Mortierella elongata AG77 can metabolize” value in data set [1] was “can metabolize”.

With `N[C@@H](Cc1c[nH]cn1)C(=O)O` [L-Histidine], the Toxic result in data set [1] and in data set [2] was “no” in each case. Moreover, the Metabolized result in data set [1] (compound as nitrogen source) is “yes”; in data set [2] (compound as carbon source) it was “no”. For the same molecule, the “Nitrogen sources that Mortierella elongata AG77 can metabolize” value in data set [1] is recorded as “can metabolize”.

For the molecule `N[C@@H](CCO)C(=O)O` [L-Homoserine], the Toxic entry in data set [1] and in data set [2] was “no” in each case. Besides, the Metabolized result in data set [1] (compound as nitrogen source) was “yes”; in data set [2] (compound as carbon source), “no”. For the same molecule, the “Nitrogen sources that Mortierella elongata AG77 can metabolize” value in data set [1] is “can metabolize”.

In the case of `CC[C@H](C)[C@H](N)C(=O)O` [L-Isoleucine], the Toxic entry in data set [1] and in data set [2] was “no” in each case. Also, the Metabolized entry in data set [1] (compound as nitrogen source) is recorded as “yes”; in data set [2] (compound as carbon source), “no”. The “Nitrogen sources that Mortierella elongata AG77 can metabolize” value in data set [1] is reported as “can metabolize”.

For `CC(C)C[C@H](N)C(=O)O` [L-Leucine], the Toxic entry in data set [1] and in data set [2] was “no” each time. The Metabolized entry in data set [1] (compound as nitrogen source) and in data set [2] (compound as carbon source) was “no” each time.

Turning to `NCCCC[C@H](N)C(=O)O` [L-Lysine], the Toxic result in data set [1] and in data set [2] was “no” throughout. Further, the Metabolized entry in data set [1] (compound as nitrogen source) and in data set [2] (compound as carbon source) was “no” in each case.

Turning to `CSCC[C@H](N)C(=O)O` [L-Methionine], the Toxic entry in data set [1] and in data set [2] was “no” each time. In addition, the Metabolized result in data set [1] (compound as nitrogen source) and in data set [2] (compound as carbon source) was “no” throughout.

For the molecule `N[C@@H](Cc1ccccc1)C(=O)O` [L-Phenylalanine], the figures for the Metabolized entry in data set [1] (compound as nitrogen source) and in data set [2] (compound as carbon source) were “no” and “yes”, respectively. Further, the Toxic result in data set [1] (setting [3]) and in data set [2] (setting [4]) was “no” in each case. For the same molecule, in data set [2], the “Carbon sources that Mortierella elongata AG77 can metabolize” value is listed as “can metabolize”.

As to `O=C(O)[C@@H]1CCCN1` [L-Proline], the Toxic result in data set [1] and in data set [2] was “no” each time. Also, the Metabolized result in data set [1] (compound as nitrogen source) and in data set [2] (compound as carbon source) was “yes” throughout. In addition, in data set [1], the “Nitrogen sources that Mortierella elongata AG77 can metabolize” value is recorded as “can metabolize”. Further, the “Carbon sources that Mortierella elongata AG77 can metabolize” value in data set [2] is given as “can metabolize”.

With `O=C1CC[C@@H](C(=O)O)N1` [L-Pyroglutamic Acid], the Toxic entry in data set [1] and in data set [2] was “no” throughout. The Metabolized result in data set [1] (compound as nitrogen source) and in data set [2] (compound as carbon source) was “no” in each case.

In the case of `N[C@@H](CO)C(=O)O` [L-Serine], the Toxic result in data set [1] and in data set [2] was “no” throughout. For the same molecule, the Metabolized entry in data set [1] (compound as nitrogen source) and in data set [2] (compound as carbon source) was “no” each time.

As for `C[C@@H](O)[C@H](N)C(=O)O` [L-Threonine], the Toxic result in data set [1] and in data set [2] was “no” in each case. Besides, the Metabolized result in data set [1] (compound as nitrogen source) was “no”; in data set [2] (compound as carbon source), “yes”. In addition, the “Carbon sources that Mortierella elongata AG77 can metabolize” value in data set [2] is recorded as “can metabolize”.

As for `CC(C)[C@H](N)C(=O)O` [L-Valine], the Toxic result in data set [1] and in data set [2] was “no” in each case. The Metabolized result in data set [1] (compound as nitrogen source) and in data set [2] (compound as carbon source) was “no” each time.

Consider `CC(=O)N[C@H]1C(O)O[C@H](CO)[C@H](O)[C@@H]1O` (stereo partly drawn) [N-Acetyl-D-Galactosamine], for which the Metabolized entry is reported as “yes” in data set [1] (compound as nitrogen source) and “no” in data set [2] (compound as carbon source). Further, the Toxic result in data set [1] (setting [3]) and in data set [2] (setting [4]) was “no” in each case. The “Nitrogen sources that Mortierella elongata AG77 can metabolize” value in data set [1] was “can metabolize”.

Turning to `CC(=O)N[C@H]1C(O)O[C@H](CO)[C@@H](O)[C@@H]1O` (stereo partly drawn) [N-Acetyl-D-Glucosamine], the Metabolized result in data set [1] (compound as nitrogen source) and in data set [2] (compound as carbon source) was “yes” throughout. Further, the Toxic entry in data set [1] (setting [3]) and in data set [2] (setting [4]) was “no” throughout. Further, in data set [1], the “Nitrogen sources that Mortierella elongata AG77 can metabolize” value is “can metabolize”. Besides, in data set [2], the “Carbon sources that Mortierella elongata AG77 can metabolize” value is “can metabolize”.

As for `CC(=O)N[C@@H](CCC(=O)O)C(=O)O` [N-Acetyl-L-Glutamic Acid], the Toxic result in data set [1] and in data set [2] was “no” in each case. For the same molecule, the Metabolized entry in data set [1] (compound as nitrogen source) is recorded as “no”; in data set [2] (compound as carbon source) it was “yes”. Moreover, the “Carbon sources that Mortierella elongata AG77 can metabolize” value in data set [2] is listed as “can metabolize”.

Regarding `NCCc1ccccc1` [Phenylethyl-amine], the Metabolized result in data set [1] (compound as nitrogen source) and in data set [2] (compound as carbon source) was “no” each time. Besides, the Toxic entry in data set [1] (setting [3]) and in data set [2] (setting [4]) was “no” in each case.
